Literature values, collected in US12391711B2 (priority 2020, dated 2025).

Conditions: human, Pain Res. Manag., 2005, 10: 15A-22A

SMILES: CCCCCc1cc(O)c2c(c1)OC(C)(C)[C@@H]1CCC(C)=C[C@@H]21 [THC, (6aR,10aR)-6,6,9-trimethyl-3-pentyl-6a,7,8,10a-tetrahydro-6H-benzo[c]chromen-1-ol]
- oral bioavailability: 4%-12%
